From PubChem BioAssay AID1671416 come the findings set out here.

In general, IC50 refers to the concentration needed to halve the response being measured.

This experiment concerns the target Proto-oncogene tyrosine-protein kinase Src (Homo sapiens) (UniProt P12931). Nature of the experiment: PubChem AID 1671416. The conditions noted are these: Z'-LYTE FRET kinase activity, recombinant SRC.

Sequence of Proto-oncogene tyrosine-protein kinase Src (Homo sapiens) (P12931 whole entry, looked up): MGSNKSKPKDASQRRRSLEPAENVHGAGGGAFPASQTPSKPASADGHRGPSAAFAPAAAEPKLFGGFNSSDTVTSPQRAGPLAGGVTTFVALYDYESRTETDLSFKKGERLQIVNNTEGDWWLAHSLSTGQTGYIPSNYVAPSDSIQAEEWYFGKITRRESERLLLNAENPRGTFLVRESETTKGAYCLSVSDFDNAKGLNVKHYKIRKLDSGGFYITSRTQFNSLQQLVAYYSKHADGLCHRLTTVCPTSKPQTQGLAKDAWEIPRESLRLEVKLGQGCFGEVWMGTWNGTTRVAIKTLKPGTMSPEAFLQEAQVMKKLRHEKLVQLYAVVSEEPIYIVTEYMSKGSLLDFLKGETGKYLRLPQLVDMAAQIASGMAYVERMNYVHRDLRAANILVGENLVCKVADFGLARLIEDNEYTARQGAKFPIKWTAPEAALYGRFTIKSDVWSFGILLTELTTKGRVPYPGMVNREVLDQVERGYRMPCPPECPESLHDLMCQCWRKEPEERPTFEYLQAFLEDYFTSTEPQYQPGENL

Turning to `COc1cc2ncnc(Nc3cccc(Cl)c3)c2cc1OC`, the IC50 was 2450 nM.
